# Test results published in patent publication US20250032429A1, “2-FLUORODESCHLO[…] TREATMENT OF DEPRESSION, INCLUDING TREATMENT-RESISTANT DEPRESSION” (CLEARMIND MEDICINE INC., priority 2021, published 2025).
# Structures can show the parent of a compound that is named as a salt.
# Key:
# [1] = tested on: patients with major depressive disorders; conditions: cited from earlier work
# [2] = Dose-response of arylcyclohexamines: intensity of experience after nasal spray, Shulgin + rating; assay type: in vivo; conditions: for Ketamine effect / 2-DCK effect / 2-FDCK effect / OPCE effect: nasal spray, Shulgin + scale as 1-4; for dose-response curve (shape): administered in the same way, FIG. 1, FIG. 2; for dosage effective as lower threshold: initial experimentation, logarithmic dosing
# Description: For safety reasons, when exploring novel psychoactives—the logarithmic scale is adopted for initial dosing to get an idea of whether or not a compound is active and if so, at what dosage ranges.
# Following this initial experimentation with OPCE, 2-DCK, and 2-FDCK (Ketamine was later added to the study for reference) it was clear that dosages of 3 mg, 15 mg, and 30 mg, correspondingly, were effective as lower thresholds for further exploration. It was decided to multiply the lower threshold doses by 2, 3 & 4 to explore the effects of higher doses on the mind. Every several days a portion of one of the compounds was measured out on an Ohaus Scout balance scale and prepared for administration via nasal spray using a refillable nasal spray bottle.
# The goals were to score a “+” ranking for effect and keep an open mind to look out for any other noteworthy observations. The Shulgin “+” based rating system (SHULGIN, A. T., & SHULGIN, A. (1991). Pihkal: a chemical love story. Berkeley, CA, Transform Press, page 964) for psychedelic experiences was chosen for a yearlong exploration of these various arylcylohexamines. Although the target family of molecules and the type of experience were different from the rating systems' original design, the scale's simplicity yields itself particularly well to this kind of exploration for a few reasons: • (1) The experience rendered by novel psychedelics is often ineffable.
# It was therefore desirable to use the simple +, ++, +++, ++++ as 1, 2, 3, 4 to rate intensity of experience without seeking an objective measure for intensity.
# When the dosages are adjusted to units that make all dose/response curves fit on the same graph then running a spline through the data points gives us curves that resemble, qualitatively, the curves appearing in FIG. 2.
# C57BL/6N mice = assay: Mouse forced swim test (FST), two-day paradigm; assay type: in vivo; conditions: i.p. in saline 30 minutes prior to FST; day 2, final 4 minutes of 6 minute session; vs vehicle
# Description: Male 10 week C57BL/6N mice (Taconic) are acclimated to a holding facility one week prior to testing. A two-day FST paradigm is employed, in which mice are exposed to a 10 minute test in absence of drug, and are tested the following day in presence of drug in a 6 minute test. 2-FDCK is administered intraperitoneally (i.p.) in saline vehicle 30 minutes prior to FST. All animals are drug naïve and not previously exposed to behavioral testing.
# Male C57BL6N/Tac mice 10 weeks of age are housed four mice per cage under a 12:12 h light/dark cycle and are allowed to acclimate for approximately one week prior to behavioral procedures. Food and water is provided ad libitum. All procedures followed the National Institutes of Health Guide for the Care and Use of Laboratory Animals.
# 2-FDCK is dissolved in a saline vehicle (0.9% sodium chloride). For the 2-FDCK dose response experiment, mice receive vehicle or varying doses of 2-FDCK i.p. 30 minutes prior to behavior testing.
# Mice are tested in a two day forced swim test (FST) procedure. […] On day 2, mice receive i.p. injections 30 minutes prior to being placed in a cylinder for a 6 minute session and immobility time is scored during the final 4 minutes.
# [3] = tested on: N-methyl-D-aspartate (NMDA) receptor; conditions: S-enantiomer compared with ketamine; cited from earlier work
smiles,measurement,setting,value
CNC1(c2ccccc2Cl)CCCCC1=O (racemic) [Ketamine],onset of antidepressant effect,[1],"rapid antidepressant effect, acting within two hours"
same,Ketamine effect,[2]; dosage 28 (mg),1
same,Ketamine effect,[2]; dosage 31 (mg),1
same,Ketamine effect,[2]; dosage 32 (mg),1
same,Ketamine effect,[2]; dosage 55 (mg),2
same,Ketamine effect,[2]; dosage 58 (mg),2
same,Ketamine effect,[2]; dosage 59 (mg),2
same,Ketamine effect,[2]; dosage 62 (mg),2
same,Ketamine effect,[2]; dosage 89 (mg),3
same,Ketamine effect,[2]; dosage 90 (mg),4
same,Ketamine effect,[2]; dosage 92 (mg),4
same,Ketamine effect,[2]; dosage 114 (mg),4
same,Ketamine effect,[2]; dosage 120 (mg),4
same,Ketamine effect,[2]; dosage 122 (mg),4
CNC1(c2ccccc2)CCCCC1=O (centres unmarked) [2-DCK],dose-response curve (shape),[2],dose-response curves that start rising sharply at low doses
same,2-DCK effect,[2]; dosage 15 (mg),1
same,2-DCK effect,[2]; dosage 16 (mg),1
same,2-DCK effect,[2]; dosage 17 (mg),1
same,2-DCK effect,[2]; dosage 18 (mg),1
same,2-DCK effect,[2]; dosage 28 (mg),3
same,2-DCK effect,[2]; dosage 29 (mg),3
same,2-DCK effect,[2]; dosage 31 (mg),3
same,2-DCK effect,[2]; dosage 33 (mg),3
same,2-DCK effect,[2]; dosage 42 (mg),4
same,2-DCK effect,[2]; dosage 43 (mg),4
same,2-DCK effect,[2]; dosage 44 (mg),4
same,2-DCK effect,[2]; dosage 45 (mg),4
same,2-DCK effect,[2]; dosage 46 (mg),4
same,2-DCK effect,[2]; dosage 57 (mg),4
same,2-DCK effect,[2]; dosage 58 (mg),4
same,2-DCK effect,[2]; dosage 61 (mg),4
same,2-DCK effect,[2]; dosage 62 (mg),4
same,dosage effective as lower threshold,[2],15 mg
"CNC1(c2ccccc2F)CCCCC1=O (centres unmarked) [2-FDCK, 2-(2-fluorophenyl)-2-(methylamino)cyclohexan-1-one]",immobility time,C57BL/6N mice,shorter immobility times relative to mice receiving vehicle alone
same,dose-response curve (shape),[2],flatter than the dose-response curve for Ketamine
same,2-FDCK effect,[2]; dosage 28 (mg),1
same,2-FDCK effect,[2]; dosage 29 (mg),1
same,2-FDCK effect,[2]; dosage 30 (mg),1
same,2-FDCK effect,[2]; dosage 31 (mg),1
same,2-FDCK effect,[2]; dosage 32 (mg),1
same,2-FDCK effect,[2]; dosage 33 (mg),1
same,2-FDCK effect,[2]; dosage 35 (mg),1
same,2-FDCK effect,[2]; dosage 55 (mg),2
same,2-FDCK effect,[2]; dosage 57 (mg),2
same,2-FDCK effect,[2]; dosage 58 (mg),2
same,2-FDCK effect,[2]; dosage 61 (mg),2
same,2-FDCK effect,[2]; dosage 62 (mg),2
same,2-FDCK effect,[2]; dosage 88 (mg),3
same,2-FDCK effect,[2]; dosage 90 (mg),3
same,2-FDCK effect,[2]; dosage 91 (mg),3
same,2-FDCK effect,[2]; dosage 114 (mg),4
same,2-FDCK effect,[2]; dosage 116 (mg),4
same,2-FDCK effect,[2]; dosage 122 (mg),4
same,2-FDCK effect,[2]; dosage 124 (mg),4
same,dose response curve (shape) compared to S-ketamine,"[2]; in treating patients with depression, specifically TRD",flatter dose response curve compared to S-ketamine
same,dosage effective as lower threshold,[2],30 mg
CCNC1(c2ccccc2)CCCCC1=O (centres unmarked) [OPCE],dose-response curve (shape),[2],dose-response curves that start rising sharply at low doses
same,OPCE effect,[2]; dosage 3 (mg),1
same,OPCE effect,[2]; dosage 4 (mg),1
same,OPCE effect,[2]; dosage 6 (mg),1
same,OPCE effect,[2]; dosage 9 (mg),2
same,OPCE effect,[2]; dosage 11 (mg),4
same,OPCE effect,[2]; dosage 12 (mg),4
same,dosage effective as lower threshold,[2],3 mg
"CN[C@]1(c2ccccc2Cl)CCCCC1=O [S-ketamine, (S)-2-(2-chlorophenyl)-2-(methylamino)cyclohexanone hydrochloride]",potency or affinity for the NMDA receptor,[3],higher potency or affinity for the NMDA reception
